{"source": "patent US20090263514A1", "about": "“Cold and flu tonic” (priority 2008, published 2009)", "origin": "cited, not measured here", "conditions": "in humans"}
{"smiles": "O=C(/C=C/C=C/c1ccc2c(c1)OCO2)N1CCCCC1", "note": "[piperine]", "values": [{"measurement": "bioavailability of curcumin", "result": "enhance bioavailability of curcumin dramatically"}]}
